In series [1] the target is JAK2 kinase (Homo sapiens (Human), UniProt O60674). In words: Assay for inhibiting JAK2 kinase (in vitro kinase assay, HRP anti-phosphotyrosine antibody/TMB absorbance). Type of series: biochemical. The settings on record: 20 μM ATP, 50 minutes at room temperature; read-out: IC50 (JAK2/Bio). How it is done:
In vitro activity of compounds of the present invention for inhibiting JAK2 kinase was determined by the following method.

Series [2] can be described thus: Pharmacokinetics assay in rats, intragastric administration, plasma by LC/MS/MS. The settings on record: both sexes, Sprague-Dawley, rat, plasma, po, SD rats, 10 mg/kg; for Vd/F: read-out: Apparent Distribution Volume Vz/F; for AUC: read-out: Area Under Curve AUC; for CL/F: read-out: Clearance CL/F; for half-life: read-out: Half-Life t½ (converted); for MRT: read-out: Mean Residence Time MRT; for Cmax: read-out: Plasma Conc. Cmax. The series is classed as in vivo, Sprague-Dawley (SD) rats. How it is done:
Rats were used as test animals. […] The pharmacokinetic behavior of the compounds of the present invention was studied and evaluated in rats.
56 Healthy adult Sprague-Dawley (SD) rats, half male and half female, purchased from SINO-BRITSH SIPPR/BK LAB.
The appropriate amount of test compounds were weighed and mixed with 1.0 mL of dimethyl sulfoxide to prepare a 1.0 mg/mL suspension.
After an overnight fast, SD rats were administered intragastrically at a dose of 10.0 mg/kg and an administration volume of 10 mL/kg.
The plasma samples were stored at −20° C. The rats were fed 2 hours after administration.
Content determination of the test compounds in rat plasma after intragastrically administering at different concentrations: 50 μL of rat plasmas taken at various time points after administration were mixed with 50 μL of internal standard solution and 100 μL of methanol and mixed for 3 minutes by a vortexer. The mixture was centrifuged for 10 minutes at 13,500 rpm. 10 μL of the supernatant was taken from the plasma sample and analyzed by LC-MS/MS.
Pharmacokinetic Parameters of the compounds of the present invention were shown as follows: […]

For series [3], the target named is JAK1 kinase (Homo sapiens (Human), UniProt P23458). In words: Assay for inhibiting JAK1 kinase (in vitro kinase assay, HRP anti-phosphotyrosine antibody/TMB absorbance). As to conditions: 20 μM ATP, 50 minutes at room temperature; read-out: IC50 (JAK1/Bio). The series is classed as biochemical. How it is done:
In vitro activity of compounds of the present invention for inhibiting JAK1 kinase was determined by the following method.
IC50 values of test compounds was calculated from the data of the test compounds in inhibiting the activity of JAK1 kinase at different concentrations.

Usually AUC stands for concentration integrated over time. In general, half-life refers to how long it takes for the measured level to halve. For orientation: MRT means a mean duration of stay, worked out from the concentration-time curve. As a reminder, the Cmax is the peak of the concentration-time curve.

Chain of JAK1 kinase (P23458 whole entry): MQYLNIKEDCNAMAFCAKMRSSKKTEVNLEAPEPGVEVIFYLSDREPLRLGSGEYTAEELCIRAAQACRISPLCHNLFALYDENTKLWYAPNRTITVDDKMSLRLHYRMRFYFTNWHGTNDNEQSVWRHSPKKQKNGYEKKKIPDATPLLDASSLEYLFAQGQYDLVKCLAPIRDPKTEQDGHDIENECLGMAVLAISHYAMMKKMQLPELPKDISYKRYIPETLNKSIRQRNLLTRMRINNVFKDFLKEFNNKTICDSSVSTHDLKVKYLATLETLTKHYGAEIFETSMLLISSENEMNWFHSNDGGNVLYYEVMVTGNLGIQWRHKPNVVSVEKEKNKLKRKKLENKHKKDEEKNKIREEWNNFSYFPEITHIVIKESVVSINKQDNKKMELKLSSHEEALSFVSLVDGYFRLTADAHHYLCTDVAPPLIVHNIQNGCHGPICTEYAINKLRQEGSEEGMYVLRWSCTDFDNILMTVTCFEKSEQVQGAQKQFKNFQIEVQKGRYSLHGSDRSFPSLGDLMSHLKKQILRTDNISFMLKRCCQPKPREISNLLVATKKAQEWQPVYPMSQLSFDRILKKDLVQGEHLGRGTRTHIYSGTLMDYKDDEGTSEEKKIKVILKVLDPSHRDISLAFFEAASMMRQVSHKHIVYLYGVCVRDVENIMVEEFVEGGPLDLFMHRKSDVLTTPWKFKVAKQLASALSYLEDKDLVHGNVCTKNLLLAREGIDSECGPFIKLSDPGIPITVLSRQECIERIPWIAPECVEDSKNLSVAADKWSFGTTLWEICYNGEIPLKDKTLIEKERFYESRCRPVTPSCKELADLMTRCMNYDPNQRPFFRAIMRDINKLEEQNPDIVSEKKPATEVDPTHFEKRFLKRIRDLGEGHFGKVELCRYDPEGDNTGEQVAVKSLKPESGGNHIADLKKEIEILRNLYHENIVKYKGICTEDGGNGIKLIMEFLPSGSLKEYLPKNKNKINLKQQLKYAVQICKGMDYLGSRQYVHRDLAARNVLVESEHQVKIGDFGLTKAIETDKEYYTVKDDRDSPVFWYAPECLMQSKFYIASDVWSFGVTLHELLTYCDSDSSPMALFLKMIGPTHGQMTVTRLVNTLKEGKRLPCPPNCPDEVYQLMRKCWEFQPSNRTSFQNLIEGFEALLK
Chain of JAK2 kinase (O60674 whole entry): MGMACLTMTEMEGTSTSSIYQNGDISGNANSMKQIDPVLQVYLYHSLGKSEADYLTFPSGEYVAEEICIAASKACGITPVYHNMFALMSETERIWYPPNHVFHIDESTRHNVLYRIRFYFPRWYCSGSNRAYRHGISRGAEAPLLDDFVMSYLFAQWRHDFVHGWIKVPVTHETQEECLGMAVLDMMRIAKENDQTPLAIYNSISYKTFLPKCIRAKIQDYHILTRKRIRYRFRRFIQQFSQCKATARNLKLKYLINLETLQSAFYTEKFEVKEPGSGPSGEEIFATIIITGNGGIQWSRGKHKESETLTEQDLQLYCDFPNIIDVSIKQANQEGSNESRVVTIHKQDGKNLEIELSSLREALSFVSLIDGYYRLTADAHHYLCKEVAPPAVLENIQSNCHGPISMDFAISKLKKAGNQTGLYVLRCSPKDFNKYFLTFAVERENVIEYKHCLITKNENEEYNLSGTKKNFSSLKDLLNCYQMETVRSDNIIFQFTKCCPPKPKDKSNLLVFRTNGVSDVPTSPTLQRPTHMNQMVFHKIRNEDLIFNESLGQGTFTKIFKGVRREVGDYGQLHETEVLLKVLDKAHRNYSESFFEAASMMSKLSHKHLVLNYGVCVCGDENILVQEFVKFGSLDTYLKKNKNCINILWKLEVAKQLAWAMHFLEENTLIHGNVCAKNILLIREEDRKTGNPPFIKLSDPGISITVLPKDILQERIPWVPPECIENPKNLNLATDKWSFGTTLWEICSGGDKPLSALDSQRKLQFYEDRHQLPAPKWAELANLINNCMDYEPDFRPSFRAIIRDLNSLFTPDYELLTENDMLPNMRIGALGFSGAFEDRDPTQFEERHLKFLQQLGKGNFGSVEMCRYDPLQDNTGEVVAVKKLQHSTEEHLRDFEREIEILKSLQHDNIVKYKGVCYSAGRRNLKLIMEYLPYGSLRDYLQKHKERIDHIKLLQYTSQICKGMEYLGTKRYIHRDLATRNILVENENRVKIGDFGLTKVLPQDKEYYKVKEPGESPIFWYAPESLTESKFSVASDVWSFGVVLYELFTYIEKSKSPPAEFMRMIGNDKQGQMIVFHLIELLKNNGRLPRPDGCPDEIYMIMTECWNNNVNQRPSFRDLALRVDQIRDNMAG

With `CN(c1ncnc2[nH]ccc12)[C@H]1C[C@@H]2CN(C(=O)CCC#N)C[C@@H]2C1` [Example 22, 4-((3aR,5S,6aS)-5-(Methyl(7H-pyrrolo[2,3-d]pyrimidin-4-yl)amino)hexahydrocyclopenta[c]pyrrol-2(1H)-yl)-4-oxobutanenitrile], the IC50 in series [1] stood at 0.054 µM. Further, in series [2], the Vd/F was 9.39 ± 8.06 L/kg, the AUC turned out to be 6.99 ± 4.56 µg·h/mL, the CL/F stood at 2.08 ± 1.36 L/h/kg and the half-life is 2.87 ± 0.7 h. In series [2], the MRT is 2.6 ± 0.1 h and the Cmax was 2.96 ± 2.11 µg/mL. In series [3], the IC50 was found to be 0.016 µM.
Regarding `COc1nsc(NC(=O)N2C[C@H]3C[C@H](N(C)c4ncnc5[nH]ccc45)C[C@H]3C2)n1` [Example 34, (3aR,5S,6aS)—N-(3-Methoxy-1,2,4-thiadiazol-5-yl)-5-(methyl(7H-pyrrolo[2,3-d]pyrimidin-4-yl)amino)hexahydrocyclopenta[c]pyrrole-2(1H)-carboxamide], the IC50 in series [1] was 0.005 µM. Also, in series [2], the Vd/F was 2.76 ± 1.53 L/kg, the AUC came to 14.9 ± 10.4 µg·h/mL, the CL/F is 1.1 ± 0.852 L/h/kg and the half-life is 2.1 ± 0.73 h. Moreover, in series [2], the MRT was 3.81 ± 0.82 h and the Cmax was found to be 2.67 ± 1.45 µg/mL. In addition, in series [3], the IC50 was found to be 0.002 µM.
`CC(=O)N1CC[C@H]2CC(N(C)c3ncnc4[nH]ccc34)C[C@H]2C1` (stereo partly drawn) [Example 35, 1-((4aS,7aR)-6-(Methyl(7H-pyrrolo[2,3-d]pyrimidin-4-yl)amino)hexahydro-1H-cyclopenta[c]pyridin-2(3H,4H,4aH,5H,6H,7H,7aH)-yl)ethanone]: the IC50 in series [1] is 0.016 µM. Moreover, in series [2], the Vd/F came to 10.4 ± 2.04 L/kg, the AUC turned out to be 3.08 ± 1.34 µg·h/mL, the CL/F is 3.8 ± 1.68 L/h/kg and the half-life was 2.11 ± 0.67 h. For the same compound, in series [2], the mean residence time (MRT) came to 3.02 ± 1.33 h and the Cmax is 1.22 ± 0.244 µg/mL. For the same compound, the IC50 in series [3] was determined as 0.003 µM.
Take `CCc1nsc(NC(=O)N2C[C@H]3C[C@H](N(C)c4ncnc5[nH]ccc45)C[C@H]3C2)n1` [Example 48, (3aR,5S,6aS)—N-(3-Ethyl-1,2,4-thiadiazol-5-yl)-5-(methyl(7H-pyrrolo[2,3-d]pyrimidin-4-yl)amino)hexahydrocyclopenta[c]pyrrole-2(1H)-carboxamide]: the IC50 in series [1] stood at 0.031 µM. Also, in series [2], the Vd/F was determined as 7.2 ± 8.11 L/kg, the AUC came out at 9.62 ± 7.91 µg·h/mL, the CL/F was 1.91 ± 1.61 L/h/kg and the half-life is 2.43 ± 0.75 h. Moreover, in series [2], the MRT worked out at 3.4 ± 0.91 h and the Cmax worked out at 2.07 ± 1.47 µg/mL. The IC50 in series [3] was determined as 0.001 µM.
For the compound `CN(c1ncnc2[nH]ccc12)[C@H]1C[C@@H]2CN(C(=O)Nc3nc(C4CC4)ns3)C[C@@H]2C1` [Example 49, (3aR,5S,6aS)—N-(3-Cyclopropyl-1,2,4-thiadiazol-5-yl)-5-(methyl(7H-pyrrolo[2,3-d]pyrimidin-4-yl)amino)hexahydrocyclopenta[c]pyrrole-2(1H)-carboxamide], the IC50 in series [1] was 0.014 µM. For the same compound, in series [2], the Vd/F is 18.1 ± 20.7 L/kg, the AUC was 6 ± 4.74 µg·h/mL, the CL/F turned out to be 2.77 ± 2.14 L/h/kg and the Cmax came out at 1.06 ± 0.677 µg/mL. The IC50 in series [3] turned out to be 0.0002 µM.
With `COc1nsc(NC(=O)N2C[C@H]3C[C@H](N(C)c4ccnc5[nH]ccc45)C[C@H]3C2)n1` [Example 113, (3aR,5S,6aS)-N-(3-methoxy-1,2,4-thiadiazol-5-yl)-5-(methyl(1H-pyrrolo[2,3-b]pyridin-4-yl)amino)hexahydrocyclopenta[c]pyrrole-2(1H)-carboxamide], the IC50 amounted to 0.178 µM in series [1] and 0.023 µM in series [3].
The corresponding values for `COc1nnc(NC(=O)N2C[C@H]3C[C@H](N(C)c4ncnc5[nH]ccc45)C[C@H]3C2)s1` [Example 155, (3aR,5S,6aS)-N-(5-methoxy-1,3,4-thiadiazol-2-yl)-5-(methyl(7H-pyrrolo[2,3-d]pyrimidin-4-yl)amino)hexahydrocyclopenta[c]pyrrole-2(1H)-carboxamide] are 0.041 µM and 0.004 µM.

(Values after patent publication US9527851B2, “Pyrrole six-membered heteroaryl ring derivative, preparation method thereof, and medicinal uses thereof” (Jiangsu Hengrui Medicine Co., Ltd., priority 2011, dated 2016).)
